According to patent publication US9079854B2 (priority 2007, dated 2015):
Read-outs that look alike come from different tables or passages of the source.

Assays:
[1] = biological target: CB1 (Homo sapiens, UniProt P21554); assay: CB1 functional assay, [35S]GTP-γ-S binding; type: biochemical; design: purchased ES-110-MG; host or cells: CHO membrane extracts
Protocol: (§1) A dose response curve was generated at eight concentrations in duplicate on CB1 and CB2 in light of reference agonists.
(§2) Membranes (CB1, ES-110-MG or CB2, ES-111-MG) are mixed with GDP (volume:volume) and incubated for at least […] on ice. In parallel, […] are mixed with the beads (volume:volume) just before starting the reaction. The following reagents are successively added in the wells of an Optiplate: 50 μl of ligand, 20 μl of the membranes:GDP mix, 10 μl of assay buffer for agonist testing and 20 μl of the […]: beads mix. The plates are covered with a topseal, shaken on an orbital shaker for 2 min, and then incubated between 30 to 60 min at room temperature. Then the plates are centrifuged for 10 min at 2000 rpm, incubated at room temperature between 1 to 4 hours and counted for 1 min with a PerkinElmer TopCount reader.
(§3) Functional activity for acyl hydrazone was evaluated using [^35S]GTP-γ-S assay in CHO membrane extracts expressing recombinant hCB1 receptor or hCB2 receptor. The assay relies on the binding of [^35S]GTP-γ-S, a radiolabeled nonhydrolyzable GTP analogue, to the G protein upon binding of an agonist of the G-protein-coupled receptor. In this system, agonists stimulate [^35S]GTP-γ-S binding whereas neutral antagonist have no effect and inverse agonists decrease [^35S]GTP-γ-S basal binding.
(§4) CB1 and CB2 assay data are presented as the mean of two determinations. […] For replicate determinations, the maximum variability tolerated in the test was of ±20% around the average of the replicates.

[2] = biological target: T1, hCB2 receptor (Homo sapiens, UniProt P34972); assay: CB2 functional assay, [35S]GTP-γ-S binding; type: biochemical
T1 construct: purchased ES-111-MG; host or cells: CHO membrane extracts
Protocol: as §1, §2, §3, §4

[3] = biological target: T2, human CB2 (hCB2) receptor (Homo sapiens, UniProt P34972); assay: CB2 binding assay, competitive binding of [3H]WIN 55212-2; conditions: for % Inhibition of Control Specific Binding / % of Control Specific Binding 1st / % of Control Specific Binding 2nd / % of Control Specific Binding Mean: CB2, Test Concentration 1.0E−05 (MD); for % of Control Specific Binding 1st: 1st determination; for % of Control Specific Binding 2nd: 2nd determination; for % Inhibition of Control Specific Binding CB2: Table 4, concentration not given; for inhibition at 10 µM: read-out: % inhibition hCB2 receptor, at 10 μM; for inhibition at 10 µM / inhibition at 1 µM: specific binding of [3H]-WIN55212-2; for inhibition at 1 µM: read-out: % inhibition hCB2 receptor, at 1 μM, CHO membranes
T2 construct: expressed in transfected cells; host or cells: CHO (Chinese hamster ovary) cells, membranes
Protocol: Cell membrane homogenates (15 μg protein) are incubated for 120 min at 37° C. with 0.8 nM [^3H]WIN 55212-2 (the reference standard [Munro, 1993 #1321]) in the absence or presence of the test compound in a buffer containing 50 mM HEPES/Tris HCL (pH 7.4), 5 mM MgCl2, 2.5 mM EGTA, and 0.1% BSA. Nonspecific binding is determined in the presence of 10 μM WIN 55212-2. After being incubated, the samples are filtered rapidly under vacuum through glass fiber filters (GF/B; Packard) presoaked with 0.3% PEI and rinsed several times with ice-cold buffer containing 50 mM Tris HCl (pH 7.4) and 0.5% BSA using a 96-sample cell harvester (Unifilter; Packard). The filters are dried then counted for radioactivity in a scintillation counter (Topcount; Packard) using a scintillation cocktail (Microscint 0; Packard). The results are expressed as a percentage of the inhibition of the control radioligand-specific binding. The reference standard compounds are tested in each experiment at several concentrations to obtain a competition curve from which its IC50 is calculated.
(§5) […] [^3H]-CP55940 at a concentration of 0.5 nM and [^3H]-WIN55212 at a concentration of 0.8 nM were used as radioligands for hCB1 and hCB2 assays, respectively. The results are expressed as a percent inhibition of control specific binding. Compounds which displaced the radioligand by more than 50% for either hCB1 or hCB2 receptors were arbitrary chosen for functional activity determination.

[4] = biological target: T3, human CB1 (hCB1) receptor (Homo sapiens, UniProt P21554); assay: CB1 binding assay, competitive binding of [3H]CP 55940; design: % Inhibition of Control Specific Binding CB1: concentration or dose not given beside the values; conditions: for % of Control Specific Binding 1st: 1st determination; for % of Control Specific Binding 2nd: 2nd determination; for inhibition at 10 µM / inhibition at 1 µM: specific binding of [3H]-CP55940; for inhibition at 1 µM: CHO membranes
T3 construct: expressed in transfected cells; host or cells: CHO (Chinese hamster ovary) cells, membranes
Protocol: Cell membrane homogenates (25 μg protein) are incubated for 120 min at 37° C. with 0.5 nM [^3H]CP 55940 (the reference standard [Rinaldi-Carmona, 1996 #1320]) in the absence or presence of the test compound in a buffer containing 50 mM Tris HCl (pH 7.4), 5 mM MgCl2, 2.5 mM EDTA, and 0.3% bovine serum albumin (BSA). […]
as §5

[5] = Table 7, relative to the efficacy of CP55940
[6] = Table 9, relative to the efficacy of CP 55,940
[7] = CB1, Test Concentration 1.0E−05 (MD)
[8] = CB2 Functional Activity, read-out: EC50 (nM) for GTP Binding
[9] = Table 7, mean of two determinations, read-out: [35S]GTP-γ-S (hCB2) EC50 (nM ± SEM)
[10] = Table 7, mean of two determinations, read-out: [35S]GTP-γ-S (hCB1) EC50 (nM ± SEM)
[11] = Table 9, mean of two determinations, read-out: [35S]GTP-γ-S hCB2 EC50 (nM ± SEM)

T2 sequence (P34972 whole entry): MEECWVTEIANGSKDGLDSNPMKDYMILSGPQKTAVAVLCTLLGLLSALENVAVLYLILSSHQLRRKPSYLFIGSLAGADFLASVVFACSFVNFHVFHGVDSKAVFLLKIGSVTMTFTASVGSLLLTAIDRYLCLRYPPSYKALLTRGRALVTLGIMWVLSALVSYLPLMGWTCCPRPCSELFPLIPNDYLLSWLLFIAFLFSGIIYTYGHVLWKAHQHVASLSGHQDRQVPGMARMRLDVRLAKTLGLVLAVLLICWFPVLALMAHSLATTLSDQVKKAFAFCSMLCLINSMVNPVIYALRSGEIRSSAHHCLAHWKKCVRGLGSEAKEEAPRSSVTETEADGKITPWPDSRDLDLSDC
T1 sequence (P34972 whole entry): as above
T3 sequence (P21554 whole entry): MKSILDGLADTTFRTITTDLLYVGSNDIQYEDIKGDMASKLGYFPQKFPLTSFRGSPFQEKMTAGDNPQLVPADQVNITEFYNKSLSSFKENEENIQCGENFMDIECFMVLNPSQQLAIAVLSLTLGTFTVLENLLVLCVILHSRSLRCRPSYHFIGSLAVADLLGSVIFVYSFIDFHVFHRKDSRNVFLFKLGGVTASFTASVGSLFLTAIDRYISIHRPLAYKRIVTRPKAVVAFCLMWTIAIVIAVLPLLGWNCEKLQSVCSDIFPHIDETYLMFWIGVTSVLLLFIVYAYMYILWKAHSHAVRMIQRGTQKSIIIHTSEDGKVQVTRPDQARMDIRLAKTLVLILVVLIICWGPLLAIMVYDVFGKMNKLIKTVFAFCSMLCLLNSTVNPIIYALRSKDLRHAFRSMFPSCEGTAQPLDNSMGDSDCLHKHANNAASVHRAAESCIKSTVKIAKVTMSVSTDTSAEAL
Sequence of CB1 (P21554 whole entry): as above

## CCCCCCC(C)(C)c1ccc([C@@H]2C[C@H](O)CC[C@H]2CCCO)c(O)c1 [CP55,940, reference compound]
[1]; [5]
  Emax: 100%
[1]; [6]
  Emax: 100%
[2]; [5]
  Emax: 100%
[2]; [6]
  Emax: 100%

## O=C(N/N=C1\C(=O)N(CCC2CCCCC2)c2ccccc21)c1ccccc1 [Example 5, Benzoic acid [1-(2-cyclohexyl-ethyl)-2-oxo-1,2-dihydro-indol-3-ylidene]-hydrazide]
[1]; CB1 Functional Activity
  % Activation Average: 56.75%
  Compound Activity: Agonist
[1]; [5]
  Emax: 56.8%
[3]
  % Inhibition of Control Specific Binding: 80%
  % of Control Specific Binding 1st: 13.9%
  % of Control Specific Binding 2nd: 26.4%
  % of Control Specific Binding Mean: 20.2%
  % Inhibition of Control Specific Binding CB2: 80%
  inhibition at 10 µM: 79.8 ± 6.3%
[4]; [7]
  % of Control Specific Binding 1st: 0.4%
  % of Control Specific Binding 2nd: 7.7%
  % of Control Specific Binding Mean: 4%
[4]
  inhibition at 10 µM: 96 ± 3.7%
[2]; CB2 Functional Activity
  % Activation Average: 55.55%
  Compound Activity: Agonist
[2]; [8]
  EC50: 103 nM
[2]; [9]
  EC50: 103 ± 1.6 nM
[2]; [5]
  Emax: 55.6%

## CCCCCCN1C(=O)/C(=N\NC(=O)Cc2ccccc2)c2ccccc21 [Example 7, Phenylacetic acid [1-n-hexyl-2-oxo-1,2-dihydro-indol-3-ylidene]-hydrazide]
[1]; CB1 Functional Activity
  % Activation Average: 71.88%
  Compound Activity: Agonist
[1]; CB1 Functional Activity, read-out: EC50 (nM) for GTP Binding
  EC50: 459 nM
[1]; [10]
  EC50: 459 ± 1.1 nM
[1]; [5]
  Emax: 71.9%
[3]
  % Inhibition of Control Specific Binding: 92%
  % of Control Specific Binding 1st: 8.4%
  % of Control Specific Binding 2nd: 8.5%
  % of Control Specific Binding Mean: 8.5%
  % Inhibition of Control Specific Binding CB2: 92%
  inhibition at 10 µM: 91.5 ± 0.1%
[4]; [7]
  % Inhibition of Control Specific Binding: 98%
  % of Control Specific Binding 1st: 0.9%
  % of Control Specific Binding 2nd: 2.6%
  % of Control Specific Binding Mean: 1.8%
[4]; Table 3, concentration not given
  % Inhibition of Control Specific Binding CB1: 98%
[4]
  inhibition at 10 µM: 98.2 ± 0.8%
[2]; CB2 Functional Activity
  % Activation Average: 45.79%
  Compound Activity: Agonist
[2]; [8]
  EC50: 189 nM
[2]; [9]
  EC50: 188.7 ± 1.3 nM
[2]; [5]
  Emax: 45.8%

## O=C(Cc1ccccc1)N/N=C1\C(=O)N(CCC2CCCCC2)c2ccccc21 [Example 10, N′-[1-(2-cyclohexylethyl)-2-oxo-1,2-dihydro-3H-indol-3-ylidene]-2-phenylacetohydrazide]
[1]; [10]
  EC50: 1238.8 ± 1.2 nM
[1]; [5]
  Emax: 75%
[3]
  inhibition at 10 µM: 47.2 ± 7.7%
[4]
  inhibition at 10 µM: 88.8 ± 0.6%
[2]; [5]
  Emax: 21%

## CCCCCCN1C(=O)/C(=N\NC(=O)C2CCCCC2)c2ccccc21 [Example 11, N′-[(3Z)-1-hexyl-2-oxo-1,2-dihydro-3H-indol-3-ylidene]cyclohexanecarbohydrazide]
[1]; read-out: [35S]GTP-γ-S hCB1 Emax (%), Table 9 footnote a: Efficacy determined at 3 μM, relative to CP 55,940
  Emax at 3 µM: 40.9%
[3]
  inhibition at 1 µM: 61 ± 2.1%
[4]
  inhibition at 1 µM: 65.8 ± 0.2%
[2]; [11]
  EC50: 79.1 ± 1.5 nM
[2]; [6]
  Emax: 58%

## CCCCCCN1C(=O)/C(=N\NC(=O)OC(C)(C)C)c2ccccc21 [Example 14, tert-butyl (2Z)-2-(1-hexyl-2-oxo-1,2-dihydro-3H-indol-3-ylidene)hydrazinecarboxylate]
[1]; Table 9, mean of two determinations, read-out: [35S]GTP-γ-S hCB1 EC50 (nM ± SEM)
  EC50: 937.1 ± 1.2 nM
[1]; [6]
  Emax: 92%
[3]
  inhibition at 1 µM: 82.3 ± 0.8%
[4]
  inhibition at 1 µM: 85.1 ± 3.3%
[2]; [11]
  EC50: 22.4 ± 1.3 nM
[2]; [6]
  Emax: 43.4%

## CCCN1C(=O)/C(=N\NC(=O)c2ccccc2)c2ccccc21 [Example 21, N′-[(3Z)-1-(1-propyl)-2-oxo-1,2-dihydro-3H-indol-3-ylidene]benzohydrazide]
[3]
  inhibition at 1 µM: 32 ± 3.6%
[4]
  inhibition at 1 µM: 43 ± 1.2%
[2]; [11]
  EC50: 200.7 ± 1.5 nM
[2]; [6]
  Emax: 61.4%
